The target of test [1] is T1, Recombinant human LTC4 synthase (Homo sapiens, UniProt Q16873).
T1 construct: made in house; host or cells: Pichia pastoris ('Piccia pastoralis' [sic])
T1 sequence (Q16873 1-150): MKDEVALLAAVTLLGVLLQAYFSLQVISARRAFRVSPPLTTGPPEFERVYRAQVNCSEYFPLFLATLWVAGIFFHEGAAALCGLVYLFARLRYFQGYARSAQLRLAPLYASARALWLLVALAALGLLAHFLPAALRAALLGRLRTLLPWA
The test is described as follows: In vitro assay Method B: LTC4 synthase, LTA4 to LTC4, HTRF detection. The class given is biochemical. Particulars: total concentration of title compound 10 μM, read-out: % inh. of LTC4 synthase. Here is the method: In the assay, LTC4 synthase catalyses the reaction where the substrate LTA4 is converted to LTC4. Recombinant human LTC4 synthase is expressed in Piccia pastoralis and the purified enzyme is dissolved in 25 mM Tris-buffer pH 7.8 and stored at −20° C. The assay is performed in phosphate buffered saline (PBS) pH 7.4, supplemented with 5 mM glutathione (GSH). The assay is performed at rt in 384-well plates. Analysis of the formed LTC4 is performed using costume made homogenous time-resolved fluorescence (HTRF) detection (Cisbio).
The following is added chronologically to each well: • 1. 50 μL assay buffer, PBS with 5 mM GSH. • 2. 0.5 μL inhibitor in DMSO. • 3. 2 μl LTC4 synthase in PBS. The total protein concentration in this solution is 0.025 mg/ml. Incubation of the plate at rt for 10 min. • 4. 1-1.5 μL LTA4 (final conc. 2.5 μM). Incubation of the plate at rt for 1 min. 10 μL of the incubation mixture is analysed using HTRF detection.

The test system of test [2] is cysteinyl leukotrienes concentration in the peritoneal lavage. Nature of the test: Mouse peritoneal inflammation model (zymosan ip), cysteinyl leukotrienes in peritoneal lavage by EIA. Format: in vivo, Male BALB/c mice. To be noted: 0.5 h, 5 min before zymosan, lavage 30 min after zymosan, read-out: %-inhibition of cysteinyl leukotrienes concentration vs vehicle treated mice; for inhibition in vivo at 10 mg/kg: 10 mg/kg ip. Here is the method: The in vivo efficacy of leukotriene biosynthesis inhibitors was assed by using a model of peritoneal inflammation. Male BALB/c mice (weighing 20-25 grams) received an intraperitoneal injection (ip) of 0.5 ml zymosan dissolved in phosphate buffer saline (PBS) (pH 7.5, 1 mg/mL). 5 Minutes before the zymosan injection compounds (1-10 mg/kg) or vehicle were administered ip (10 mL/kg). 30 min after the zymosan injection the mice were anaesthetized and the peritoneal cavity was flushed with 4 mL PBS. The peritoneal lavage was centrifuged at 6000 rcf for 5 minutes and the cysteinyl leukotrienes concentration in the supernatant was determined by EIA. The cysteinyl leukotrienes concentration in the peritoneal lavage from compound treated mice was compared to vehicle treated mice and the % inhibition was calculated.

Molecules are shown by their SMILES.

This note sets out measurements from patent publication US20120029016A1, “Indoles Useful in the Treatment of Inflammation” (BIOLIPOX AB, priority 2008, published 2012).

Regarding `CC(C)Oc1ccc(Oc2ccc3c(c2)c(C(=O)O)c(CC(=O)O)n3-c2ccc(OCc3ccccc3Cl)cc2)cc1` [1:3, 2-Carboxymethyl-1-[4-(2-chlorobenzyloxy)phenyl]-5-(4-isopropoxy-phenoxy)indole-3-carboxylic acid], in test [1], the inhibition at 10 µM is 95%.
The same measure, in the same setting: then `CC(C)Oc1ccc(Oc2ccc3c(c2)c(C(=O)O)c(CC(=O)O)n3-c2ccc(OCc3ccc(Cl)c(Cl)c3)cc2)cc1` [1:4, 2-Carboxymethyl-1-[4-(3,4-dichlorobenzyloxy)phenyl]-5-(4-isopropoxyphenoxy)indole-3-carboxylic acid], with 93%; and `CC(C)Oc1ccc(Oc2ccc3c(c2)c(C(=O)O)c(CC(=O)O)n3-c2ccc(OCc3ccc(Cl)cc3)cc2)cc1` [1:6, 2-Carboxymethyl-1-[4-(4-chlorobenzyloxy)phenyl]-5-(4-isopropoxy-phenoxy)indole-3-carboxylic acid], with 95%.
Same read-out and setting: with `CC(C)Oc1ccc(Oc2ccc3c(c2)c(C(=O)O)c(CC(=O)O)n3-c2ccc(OCc3cccc(Cl)c3)cc2)cc1` [1:7, 2-Carboxymethyl-1-[4-(3-chlorobenzyloxy)phenyl]-5-(4-isopropoxy-phenoxy)indole-3-carboxylic acid] the figure was 94%; with `CC(C)Oc1ccc(Oc2ccc3c(c2)c(C(=O)O)c(CC(=O)O)n3-c2ccc(OCc3ccc(Cl)nc3)cc2)cc1` [1:11, 2-Carboxymethyl-1-[4-(6-chloro-3-pyridinylmethoxy)phenyl]-5-(4-isopropoxyphenoxy)indole-3-carboxylic acid], 99%.
Still for that read-out and setting: then `CC(C)Oc1ccc(Oc2ccc3c(c2)c(C(=O)O)c(CC(=O)O)n3-c2ccc(Oc3cccc(Cl)c3)cc2)cc1` [3:2, 2-Carboxymethyl-1-[4-(3-chlorophenoxy)phenyl]-5-(4-isopropoxy-phenoxy)indole-3-carboxylic acid], with 97%; and `CC(C)Oc1ccc(Oc2ccc3c(c2)c(C(=O)O)c(CC(=O)O)n3-c2ccc(Oc3ccccc3Cl)cc2)cc1` [3:4, 2-Carboxymethyl-1-[4-(2-chlorophenoxy)phenyl]-5-(4-isopropoxy-phenoxy)indole-3-carboxylic acid], with 9%.
Turning to `O=C(O)Cc1c(C(=O)O)c2cc(Oc3ccc(OC(F)(F)F)cc3)ccc2n1-c1ccc(OC2CCCC2)cc1` [4:2, 2-Carboxymethyl-1-(4-cyclopentyloxyphenyl)-5-(4-trifluoromethoxyphenoxy)indole-3-carboxylic acid], in test [1], the inhibition at 10 µM worked out at 100%.
Still for that read-out and setting: then `O=C(O)Cc1c(C(=O)O)c2cc(Oc3ccc(OC4CCCC4)cc3)ccc2n1-c1ccc(OC2CCCC2)cc1` [4:3, 2-Carboxymethyl-5-(4-cyclopentyloxyphenoxy)-1-(4-cyclopentyloxyphenyl)indole-3-carboxylic acid], with 97%.
The same measure, in the same setting: with `O=C(O)Cc1c(C(=O)O)c2cc(Oc3ccc(OC4CC4)cc3)ccc2n1-c1ccc(OC2CCCC2)cc1` [4:4, 2-Carboxymethyl-1-(4-cyclopentyloxyphenyl)-5-(4-cyclopropoxyphenoxy)-indole-3-carboxylic acid] the figure was 98%.
The same measure, in the same setting: with `CC(C)Oc1ccc(Oc2ccc3c(c2)c(C(=O)O)c(CC(=O)O)n3-c2ccc(OC3CC4CCC3C4)cc2)cc1` (stereo not drawn) [5:3, 2-Carboxymethyl-5-(4-isopropoxyphenoxy)-1-[4-(2-norbomanyloxy)-phenyl]indole-3-carboxylic acid] the figure was 95%; with `O=C(O)Cc1c(C(=O)O)c2cc(Oc3ccc(OC(F)(F)F)cc3)ccc2n1-c1ccc(NCc2cccnc2)cc1` [6:1, 2-Carboxymethyl-1-[4-(3-pyridinylmethylamino)phenyl]-5-(4-trifluoromethoxyphenoxy)indole-3-carboxylic acid], 100%; with `CCN(c1ccccc1)c1ccc(-n2c(CC(=O)O)c(C(=O)O)c3cc(Oc4ccc(OC(F)(F)F)cc4)ccc32)cc1` [6:3, 2-Carboxymethyl-1-{4-[ethyl(phenyl)amino]phenyl}-5-(4-trifluoromethoxy-phenoxy)indole-3-carboxylic acid], 100%.
As for `CCN(c1ccc(-n2c(CC(=O)O)c(C(=O)O)c3cc(Oc4ccc(OC(F)(F)F)cc4)ccc32)cc1)c1cccc(C)c1` [6:4, 2-Carboxymethyl-1-{4-[ethyl(m-tolyl)amino]phenyl}-5-(4-trifluoromethoxy-phenoxy)indole-3-carboxylic acid], the inhibition at 10 µM in test [1] stood at 94%.
`O=C(O)Cc1c(C(=O)O)c2cc(Oc3ccc(OC(F)(F)F)cc3)ccc2n1-c1ccc(NC2CCCC2)cc1` [6:5, 2-Carboxymethyl-1-(4-cyclopentylaminophenyl)-5-(4-trifluoromethoxy-phenoxy)indole-3-carboxylic acid]: the inhibition at 10 µM in test [1] was 100%.
In the case of `O=C(O)Cc1c(C(=O)O)c2cc(Oc3ccc(OC(F)(F)F)cc3)ccc2n1-c1ccc(NCC2CCCCC2)cc1` [6:6, 2-Carboxymethyl-1-(4-cyclohexylmethylaminophenyl)-5-(4-trifluoro-methoxyphenoxy)indole-3-carboxylic acid], the inhibition at 10 µM in test [1] worked out at 97%.
The same measure, in the same setting: with `CCCCCCCCNc1ccc(-n2c(CC(=O)O)c(C(=O)O)c3cc(Oc4ccc(OC(F)(F)F)cc4)ccc32)cc1` [6:7, 2-Carboxymethyl-1-(4-octylaminophenyl)-5-(4-trifluoromethoxyphenoxy)-indole-3-carboxylic acid] the figure was 98%; with `O=C(O)Cc1c(C(=O)O)c2cc(Oc3ccc(OC(F)(F)F)cc3)ccc2n1-c1ccc(Nc2cccc3c2CCCC3)cc1` [6:8, 2-Carboxymethyl-1-[4-(5,6,7,8-tetrahydro-1-naphthylamino)phenyl]-5-(4-trifluoromethoxyphenoxy)indole-3-carboxylic acid], 97%.
The same measure, in the same setting: with `O=C(O)Cc1c(C(=O)O)c2cc(Oc3ccc(OC(F)(F)F)cc3)ccc2n1-c1ccc(NCc2ccccc2)cc1` [6:9, 1-(4-benzylaminophenyl)-2-carboxymethyl-5-(4-trifluoromethoxy-phenoxy)indole-3-carboxylic acid] the figure was 100%.
Turning to `CC(C)Oc1ccc(Oc2ccc3c(c2)c(C(=O)O)c(CC(=O)O)n3-c2ccc(OCc3ccccc3)cc2)cc1` [Example 1:1, 1-(4-Benzyloxyphenyl)-2-carboxymethyl-5-(4-isopropoxyphenoxy)indole-3-carboxylic acid], the inhibition at 10 µM in test [1] was 99%. In addition, in test [2] (1 mg/kg ip), the inhibition in vivo at 1 mg/kg was found to be 78%. Moreover, the inhibition in vivo at 3 mg/kg in test [2] (3 mg/kg ip) was 92%. Also, in test [2], the inhibition in vivo at 10 mg/kg came out at 100%.
`Cc1ccc(COc2ccc(-n3c(CC(=O)O)c(C(=O)O)c4cc(Oc5ccc(OC(C)C)cc5)ccc43)cc2)cc1` [Example 1:2, 2-Carboxymethyl-5-(4-isopropoxyphenoxy)-1-(4-(4-methylbenzyloxy)phenyl)indole-3-carboxylic acid]: the inhibition at 10 µM in test [1] was 96%.
On to `COc1ccc(COc2ccc(-n3c(CC(=O)O)c(C(=O)O)c4cc(Oc5ccc(OC(C)C)cc5)ccc43)cc2)cc1` [Example 1:5, 2-Carboxymethyl-1-5-(4-isopropoxyphenoxy)-[4-(4-methoxybenzyloxy)-phenyl]indole-3-carboxylic acid], for which the inhibition at 10 µM in test [1] was determined as 97%. In addition, the inhibition in vivo at 10 mg/kg in test [2] is 92%.
For `CC(C)Oc1ccc(Oc2ccc3c(c2)c(C(=O)O)c(CC(=O)O)n3-c2ccc(OCc3ccccc3C(F)(F)F)cc2)cc1` [Example 1:8, 2-Carboxymethyl-1-5-(4-isopropoxyphenoxy)-[4-(2-trifluoromethyl-benzyloxy)phenyl]indole-3-carboxylic acid], in test [1], the inhibition at 10 µM came to 98%. Further, the inhibition in vivo at 10 mg/kg in test [2] was determined as 96%.
As to `CC(C)Oc1ccc(Oc2ccc3c(c2)c(C(=O)O)c(CC(=O)O)n3-c2ccc(OC3CCC(C)(C)CC3)cc2)cc1` [Example 5:1, 2-Carboxymethyl-1-[4-(4,4-dimethylcyclohexyloxy)phenyl]-5-(4-isopropoxyphenoxy)indole-3-carboxylic acid], the inhibition at 10 µM in test [1] worked out at 97%.
On the same count and under the same terms, then `O=C(O)Cc1c(C(=O)O)c2cc(Oc3ccc(OC(F)(F)F)cc3)ccc2n1-c1ccc(NCc2ccc(Cl)nc2)cc1` [Example 6:2, 2-Carboxymethyl-1-{4-[(6-chloro-3-pyridinylmethyl)amino]phenyl}-5-(4-trifluoromethoxyphenoxy)indole-3-carboxylic acid], with 95%.
